{
  "source": "patent US20100004582A1",
  "about": "“Wide-Area Parasystemic Treatment of Skin Related Conditions” (PANTEC BIOSOLUTIONS AG, priority 2006, published 2010)",
  "origin": "cited, not measured here",
  "system": "psoriasis",
  "conditions": "conventional efalizumab treatment, not via porated skin",
  "data": [
    {"substance": "efalizumab", "values": [
      {"measurement": "patients in whom treatment attenuated the disease", "value": "22-28 % of patients"}
    ]}
  ]
}
